Measured values reported in patent US20230112484A1, “COMPOSITIONS FOR CROP PROTECTION” (Agrematch Ltd., priority 2020, published 2023).

Columns and labels:
Assay type in all cases: in vivo
Zea mays = assay: Soil germination (Example 3); details: 0.1 mg/ml; score 0 = complete germination inhibition, 100 = no effect; after 7 days
Description: (§1) Compounds were dissolved in DMSO and then in distilled water to get 0.1 or 0.5 mg/ml solution with 2% DMSO. 2% DMSO solution in water was used as a negative control. No positive control was used in this assay. Flowerpots were filled with 30 g of soil, each treatment contained three flowerpots. Each flowerpot was sprayed with 1.5 ml of the dissolved compound. Soil was let dry for about 1 hour at room conditions, and then each flowerpot was sub-irrigated with 40 ml water and incubated at controlled growth chambers, under conditions provided on table 6. Gemination was assessed and scored after 7 days. Scoring scale: 0—complete germination inhibition, 100—no effect. [table]

Echinochloa colonum = assay: Soil germination (Example 3); details: 0.1 mg/ml; score 0 = complete germination inhibition, 100 = no effect; after 7 days
Description: as §1

Abutilon theophrasti = assay: Soil germination (Example 3); details: 0.1 mg/ml; score 0 = complete germination inhibition, 100 = no effect; after 7 days
Description: as §1

Setaria adhaerens = assay: Soil germination (Example 3); details: 0.1 mg/ml; score 0 = complete germination inhibition, 100 = no effect; after 7 days
Description: as §1

Triticum vulgare = assay: Soil germination (Example 3); details: 0.1 mg/ml; score 0 = complete germination inhibition, 100 = no effect; after 7 days
Description: as §1

Amaranthus palmeri [1] = assay: Soil germination (Example 3); details: 0.1 mg/ml; score 0 = complete germination inhibition, 100 = no effect; after 7 days
Description: as §1

Lolium rigidum = assay: Soil germination (Example 1); details: for Lolium rigidum soil germination: score 0 = complete germination inhibition, 100 = no effect; for soil germination of Lolium rigidum, result in words: concentration not given
Description: (§2) Compounds were dissolved in DMSO and then in distilled water to get 0.01-2 mg/ml solution with 1% or 2% DMSO. 1% or 2% DMSO solution in water was used as a negative control. As a positive control, 0.1 or 0.2 mg/ml oxyfluorfen (Galigan) solution was used.
(§3) Flowerpots were filled with 30 g of soil, and 4-5 seeds were sowed in each flowerpot. Each treatment contained 3 flowerpots. Each flowerpot was sprayed with 1.5 ml of the dissolved compound. Soil was let dry for about 1 hour at room conditions, and then each flowerpot was sub-irrigated with 40 ml water and incubated under conditions provided below.
(§4) Amaranthus palmeri was incubated at 25° C. for 8 hr in dark, followed by 16 hr at 30° C. in light. Lolium rigidum was incubated at 21° C. for 8 hr in dark, followed by 16 hr at 21° C. in light. Germination was assessed and scored after 4-7 days. Scoring scale: 0—complete germination inhibition, 100—no effect.

Amaranthus palmeri [2] = assay: Soil germination (Example 1); details: for Amaranthus palmeri soil germination: score 0 = complete germination inhibition, 100 = no effect; for soil germination of Amaranthus palmeri, result in words: concentration not given
Description: as §2, §3, §4

Amaranthus palmeri [3] = assay: Residual activity greenhouse assay; details: seeds sowed three weeks after pre-emergence application
Source text: Residual activity of Compound 1 and Compound 2 was examined in greenhouse assay. Three weeks after pre-emergence application, new Amaranthus palmeri seeds were sowed on the same pots and germination was followed.

Amaranthus palmeri [4] = assay: Pre-emergence application (Example 5); details: score 0 = complete germination inhibition, 100 = no effect
Description: For pre-emergence application, compounds were dissolved in DMSO and then in distilled water to get 0.1-2 mg/ml solution with 2% DMSO. 2% DMSO solution in water was used as a negative control. As a positive control, 0.2 mg/ml oxyfluorfen ([…]) solution was used. For pre-emergence application, flowerpots were filled with 30 g of soil, and 4-5 Amaranthus palmeri seeds were sowed in each flowerpot. Each treatment contained 3 flowerpots. Each flowerpot was sprayed with 1.5 ml of the dissolved compound. Soil was let dry for about 1 hour at room conditions, and then each flowerpot was sub-irrigated with 40 ml water and incubated under conditions provided below. Amaranthus palmeri was incubated at 25° C. for 8 hr in dark, followed by 16 hr at 30° C. in light. Germination was assessed and scored after 4-7 days. Scoring scale: 0-complete germination inhibition, 100-no effect.

Amaranthus palmeri [5] = assay: Post-emergence application (Example 5); details: score 0 = complete phytotoxic effect, 100 = no effect
Description: For post-emergence application, compounds were dissolved in DMSO and then in distilled water to get 0.05-2 mg/ml solution with 2% DMSO. Break-Thru surfactant was added to a final concentration of 0.05%. Negative control—an aqueous solution of 2% DMSO and 0.05% Break-Thru. Positive control—2 mg/ml Glyphosate (Roundup). For post-emergence application, 1.5 ml of each compound solution were sprayed on the foliage of Amaranthus palmeri, which were 10 days old at the day of the experiment. Each treatment contained 3 pots. Plants were let dry for about 15 minutes at room conditions, and then incubated at controlled growth chambers. Phytotoxicity was assessed and scored 4-10 days after applications. Scoring scale: 0—complete phytotoxic effect, 100—no effect.

Setaria viridis = assay: Herbicidal effect against Setaria viridis (Example 5); details: for Herbicidal effect against Setaria viridis, result in words: in vivo
[6] = 2 mg/ml, 4-10 days after application

CC(Cl)/C=C/C(=O)N(CC(C)C)CC(C)C (stereo not drawn) [Compound 1]
Herbicidal activity, soil germination, Zea mays (Zea mays): 100
Herbicidal activity, soil germination, Echinochloa colonum (Echinochloa colonum): 100
Herbicidal activity, soil germination, Abutilon theophrasti (Abutilon theophrasti): 100
Herbicidal activity, soil germination, Setaria adhaerens (Setaria adhaerens): 60
Herbicidal activity, soil germination, Triticum vulgare (Triticum vulgare): 100
Herbicidal activity, soil germination, Amaranthus palmeri (Amaranthus palmeri [1]): 0
Lolium rigidum soil germination (Lolium rigidum; 0.5 mg/ml): 60
soil germination of Lolium rigidum, result in words (Lolium rigidum): active
Amaranthus palmeri soil germination (Amaranthus palmeri [2]; 0.01 mg/ml): 80
Amaranthus palmeri soil germination (Amaranthus palmeri [2]; 0.025 mg/ml): 30
Amaranthus palmeri soil germination (Amaranthus palmeri [2]; 0.05 mg/ml): 0
Amaranthus palmeri soil germination (Amaranthus palmeri [2]; 0.1 mg/ml): 0
Amaranthus palmeri soil germination (Amaranthus palmeri [2]; 0.25 mg/ml): 0
soil germination of Amaranthus palmeri, result in words (Amaranthus palmeri [2]): active
Residual activity: germination of newly sowed Amaranthus palmeri seeds (Amaranthus palmeri [3]): germination was observed

CC(F)/C=C/C(=O)N(Cc1ccc(Cl)nc1)CC(C)C (stereo not drawn) [Compound 3]
Amaranthus palmeri soil germination (Amaranthus palmeri [2]; 0.1 mg/ml): 30

Cc1ccsc1CN(CC(C)C)C(=O)/C=C/C(C)Cl (stereo not drawn) [Compound 6]
Lolium rigidum soil germination (Lolium rigidum; 2 mg/ml): 30
soil germination of Lolium rigidum, result in words (Lolium rigidum): active
Amaranthus palmeri soil germination (Amaranthus palmeri [2]; 0.1 mg/ml): 100
Amaranthus palmeri soil germination (Amaranthus palmeri [2]; 0.25 mg/ml): 100
Amaranthus palmeri soil germination (Amaranthus palmeri [2]; 0.5 mg/ml): 100
Amaranthus palmeri soil germination (Amaranthus palmeri [2]; 1 mg/ml): 70
Amaranthus palmeri soil germination (Amaranthus palmeri [2]; 2 mg/ml, after 4-7 days): 0
soil germination of Amaranthus palmeri, result in words (Amaranthus palmeri [2]): active

CC#CCN(CC(C)C)C(=O)/C=C/C(C)Cl (stereo not drawn) [Compound 7]
Pre-emergence Amaranthus palmeri herbicidal activity (Amaranthus palmeri [4]; 0.1 mg/ml): 10
Pre-emergence Amaranthus palmeri herbicidal activity (Amaranthus palmeri [4]; 0.25 mg/ml): 5
Pre-emergence Amaranthus palmeri herbicidal activity (Amaranthus palmeri [4]; 2 mg/ml, after 4-7 days): 0
Post-emergence Amaranthus palmeri herbicidal activity (Amaranthus palmeri [5]; [6]): 40

CCC#CCN(CC(C)C)C(=O)/C=C/C(C)Cl (stereo not drawn) [Compound 8]
Pre-emergence Amaranthus palmeri herbicidal activity (Amaranthus palmeri [4]; 0.1 mg/ml): 100
Pre-emergence Amaranthus palmeri herbicidal activity (Amaranthus palmeri [4]; 0.25 mg/ml): 40
Pre-emergence Amaranthus palmeri herbicidal activity (Amaranthus palmeri [4]; 2 mg/ml, after 4-7 days): 0
Post-emergence Amaranthus palmeri herbicidal activity (Amaranthus palmeri [5]; [6]): 30

CCOCC#CCN(CC(C)C)C(=O)/C=C/C(C)Cl (stereo not drawn) [Compound 9]
Pre-emergence Amaranthus palmeri herbicidal activity (Amaranthus palmeri [4]; 0.1 mg/ml): 60
Pre-emergence Amaranthus palmeri herbicidal activity (Amaranthus palmeri [4]; 0.25 mg/ml): 50
Pre-emergence Amaranthus palmeri herbicidal activity (Amaranthus palmeri [4]; 2 mg/ml, after 4-7 days): 0
Post-emergence Amaranthus palmeri herbicidal activity (Amaranthus palmeri [5]; [6]): 80

C#CCOCC#CCN(CC(C)C)C(=O)/C=C/C(C)Cl (stereo not drawn) [Compound 10]
Pre-emergence Amaranthus palmeri herbicidal activity (Amaranthus palmeri [4]; 0.1 mg/ml): 100
Pre-emergence Amaranthus palmeri herbicidal activity (Amaranthus palmeri [4]; 0.25 mg/ml): 5
Pre-emergence Amaranthus palmeri herbicidal activity (Amaranthus palmeri [4]; 2 mg/ml, after 4-7 days): 0
Post-emergence Amaranthus palmeri herbicidal activity (Amaranthus palmeri [5]; [6]): 70

CC(Cl)/C=C/C(=O)N(CC(C)C)CC(F)(F)F (stereo not drawn) [Compound 11]
Pre-emergence Amaranthus palmeri herbicidal activity (Amaranthus palmeri [4]; 0.1 mg/ml): 15
Pre-emergence Amaranthus palmeri herbicidal activity (Amaranthus palmeri [4]; 0.25 mg/ml): 5
Pre-emergence Amaranthus palmeri herbicidal activity (Amaranthus palmeri [4]; 2 mg/ml, after 4-7 days): 0
Post-emergence Amaranthus palmeri herbicidal activity (Amaranthus palmeri [5]; [6]): 60

CC(Cl)/C=C/C(=O)N(CCC(C)C)Cc1ccc(Cl)nc1 (stereo not drawn) [Compound 12]
Herbicidal effect against Setaria viridis, result in words (Setaria viridis): moderate herbicidal effect
Pre-emergence Amaranthus palmeri herbicidal activity (Amaranthus palmeri [4]; 0.1 mg/ml): 20
Pre-emergence Amaranthus palmeri herbicidal activity (Amaranthus palmeri [4]; 0.25 mg/ml): 5
Post-emergence Amaranthus palmeri herbicidal activity (Amaranthus palmeri [5]; 0.05 mg/ml): 0
Post-emergence Amaranthus palmeri herbicidal activity (Amaranthus palmeri [5]; 0.075 mg/ml): 0

CC(Cl)/C=C/C(=O)N(Cc1ccc(C#N)nc1)CC(C)C (stereo not drawn) [Compound 13]
Herbicidal effect against Setaria viridis, result in words (Setaria viridis): moderate herbicidal effect
Pre-emergence Amaranthus palmeri herbicidal activity (Amaranthus palmeri [4]; 0.1 mg/ml): 30
Pre-emergence Amaranthus palmeri herbicidal activity (Amaranthus palmeri [4]; 0.25 mg/ml): 0
Post-emergence Amaranthus palmeri herbicidal activity (Amaranthus palmeri [5]; 0.05 mg/ml): 10
Post-emergence Amaranthus palmeri herbicidal activity (Amaranthus palmeri [5]; 0.075 mg/ml): 0

CC(Cl)/C=C/C(=O)N(CCC(C)C)Cc1ccc(Cl)s1 (stereo not drawn) [Compound 14]
Herbicidal effect against Setaria viridis, result in words (Setaria viridis): moderate herbicidal effect
Pre-emergence Amaranthus palmeri herbicidal activity (Amaranthus palmeri [4]; 0.1 mg/ml): 20
Pre-emergence Amaranthus palmeri herbicidal activity (Amaranthus palmeri [4]; 0.25 mg/ml): 5
Post-emergence Amaranthus palmeri herbicidal activity (Amaranthus palmeri [5]; 0.25 mg/ml): 20
Post-emergence Amaranthus palmeri herbicidal activity (Amaranthus palmeri [5]; 0.5 mg/ml): 20

CC(Cl)/C=C/C(=O)N(CCC(C)C)Cc1cnc(Cl)s1 (stereo not drawn) [Compound 15]
Herbicidal effect against Setaria viridis, result in words (Setaria viridis): moderate herbicidal effect
Pre-emergence Amaranthus palmeri herbicidal activity (Amaranthus palmeri [4]; 0.1 mg/ml): 20
Pre-emergence Amaranthus palmeri herbicidal activity (Amaranthus palmeri [4]; 0.25 mg/ml): 0
Post-emergence Amaranthus palmeri herbicidal activity (Amaranthus palmeri [5]; 0.25 mg/ml): 5
Post-emergence Amaranthus palmeri herbicidal activity (Amaranthus palmeri [5]; 0.5 mg/ml): 0

CC(Cl)/C=C/C(=O)N(CCC(C)C)CCC(C)C (stereo not drawn) [Compound 16]
Inhibition of Setaria viridis (Setaria viridis; applying to the area under cultivation): more than 30%
Herbicidal effect against Setaria viridis, result in words (Setaria viridis): very good herbicidal effect
Pre-emergence Amaranthus palmeri herbicidal activity (Amaranthus palmeri [4]; 0.1 mg/ml): 10
Pre-emergence Amaranthus palmeri herbicidal activity (Amaranthus palmeri [4]; 0.25 mg/ml): 0
Post-emergence Amaranthus palmeri herbicidal activity (Amaranthus palmeri [5]; 0.25 mg/ml): 50
Post-emergence Amaranthus palmeri herbicidal activity (Amaranthus palmeri [5]; 0.5 mg/ml): 10

COc1ccc(CN(CC(C)C)C(=O)/C=C/[C@@H](C)Cl)cc1 [reference compound]
Lolium rigidum soil germination (Lolium rigidum; 0.5 mg/ml): unable to reduce soil germination
Amaranthus palmeri soil germination (Amaranthus palmeri [2]; 0.1 mg/ml): substantially less active
